Converted amounts (≈) assume the structure as drawn. Numbered stars: 1 amine (or outer) side, 2 acyl side, 3 side chain; on linkers, the order of the positions; unused ones are H or OH. Square brackets hold non-standard residues; d marks the D form. Peptide text beside a SMILES is read from it. Phe(4-NH2) = Nc1ccc(C[C@H](N)C(=O)O)cc1; Suc = O=C(CCC(=O)[*:2])[*:1]
Columns and labels:
[1] = system: purified rat peritoneal mast cells; type: cell-based; conditions: for maximal inhibition of compound 48/80 induced histamine secretion: 600 μg/ml peptide, compound 48/80 concentration not given; for Inhibitor (extent of inhibition of histamine secretion from mast cells): Table 9, incubation with different concentrations of each peptide, then induction of the allergic reaction
Protocol: 37° C. […] Each data point represents the average of duplicate measurements. The spontaneously released histamine was subtracted.
First, the effect of compound 48/80 on exocytosis from intact mast cells was determined. […] Histamine release was determined and is presented as the net secretion that is % of the total cellular histamine following subtraction of the spontaneously released histamine. Half-maximal release was obtained at 0.1 μg/ml while maximal release was obtained at 1-10 μg/ml. Accordingly, in order to analyze the potential of each peptide to block histamine secretion, histamine secretion was induced with 5 μg/ml compound 48/80, a concentration that induces a maximal histamine release, while the cells were incubated in the presence of increasing concentrations of each peptide.
In order to investigate the ability of these peptides to block allergen-induced exocytosis, the peptides were examined for their ability to block compound 48/80 induced histamine secretion from intact mast cells in vitro. Mast cells were incubated with different concentrations of each peptide, followed by induction of histamine secretion by compound 48/80.

[2] = system: abdominal skin of C.R rats; assay: Rat skin test: intradermal injection of peptide, then intradermal compound 48/80 or vehicle, wheal area; type: in vivo; conditions: for Mean Wheal Area ± STD, Compound 48/80 / Wheal Area, Compound 48/80 (representative experiment): 0.5 hour before allergic induction; for Mean Wheal Area ± STD, Vehicle / Wheal Area, Vehicle (representative experiment): 0.5 hour before; for Mean Wheal Area ± STD, Vehicle: vehicle instead of compound 48/80
Protocol: The hair of the abdominal area of C.R rats was carefully removed with an electric clipper and a depilatory cream. In each animal the abdominal area was divided to six equal zones that were marked by pen. Each zone was either subjected to peptide treatment or served as a control. In the first set of experiments, the peptide was topically applied as follows: 36 μl of peptide solution at the indicated concentration (dissolved in 72% DMSO in saline) was applied on desired abdominal area. In the second set of experiments, the peptide was injected intradermally as follows: 20 μl of peptide solution at different concentrations (dissolved in 10% DMSO in saline) was injected intradermally to an indicated abdominal area using a 27-gauge sterile needle.
Skin tests were performed 0.5, 1 or 2 hours following application of the peptide. Skin tests were performed by injecting intradermally 20 μl of the allergen (0.1 mg/ml compound 48/80 dissolved in saline) or saline alone, into the center of each marked area on the abdominal skin using a 27-gauge sterile needle. The allergic response was monitored by outlining with a marker the wheals which developed in response to allergen or saline treatment.
To quantitate the skin test results, the marker signs were transferred onto paper with scotch tape. The areas of the wheals were outlined and calculated by a computerized planimeter (Hewlett-Packard), as previously described (Sussman et al., 1982).
Tables 10-16 presents the mean areas of the wheals, which developed in response to intradermal injection of each of the tested peptides, followed by either compound 48/80 or DDW injection applied after 0.5 or 1 hour. Two doses were tested for each peptide-20 and 200 μg (injection of 20 μl from a stock solution of 1 mg/ml or 10 mg/m respectively).
Skin tests on rats using compound 48/80 as the allergen assessed the ability of the peptides of the present invention to block allergic cutaneous reactions. The abdominal skin of the rats was subjected to peptide (indicated concentrations are listed in Tables 17A-17B below) or vehicle treatment (intradermal injection); the allergic response was induced by intradermal injection of compound 48/80 at various times; and the allergic response was quantified by calculating the area of the resultant allergic wheals.

[3] = system: purified rat peritoneal mast cells; assay: Histamine secretion from intact mast cells incubated with peptide alone (secretagogue side effect); conditions: for Secretagogue (histamine secretion following incubation of mast cell with different concentrations of each peptide): Table 9, no allergen; for Secretagogue (histamine secretion following incubation of mast cell with different concentrations of each peptide) / basal level of histamine secretion compared to control cells: peptide alone; for histamine secretion from mast cells on incubation with increasing concentrations of peptide alone: no additional allergen; for basal level of histamine secretion compared to control cells: increasing concentrations
[4] = intradermal peptide 0.5 hour before allergic induction

IC50, compound 48/80 induced histamine secretion [1] [µg/mL] | Mean Wheal Area ± STD, Vehicle ([2]; intradermal peptide 1 mg/ml) | Mean Wheal Area ± STD, Vehicle ([2]; intradermal peptide 10 mg/ml) | Wheal Area, Vehicle (representative experiment) ([2]; intradermal peptide 1 mg/ml) [mm^2] | Wheal Area, Vehicle (representative experiment) ([2]; intradermal peptide 10 mg/ml) [mm^2] | SMILES | maximal inhibition of compound 48/80 induced histamine secretion [1] [%] | Inhibitor (extent of inhibition of histamine secretion from mast cells) [1] | block of compound 48/80 induced allergic reaction in vivo, rat skin ([2]; intradermal peptide) | Mean Wheal Area ± STD, Compound 48/80 ([2]; intradermal peptide 1 mg/ml) | Mean Wheal Area ± STD, Compound 48/80 ([2]; intradermal peptide 10 mg/ml) | reduction of compound 48/80 induced allergic reaction [2, 4] | Secretagogue (histamine secretion following incubation of mast cell with different concentrations of each peptide) [3] | histamine secretion from mast cells on incubation with increasing concentrations of peptide alone [3] | basal level of histamine secretion compared to control cells [3] | reduction of compound 48/80 induced allergic reaction ([2]; intradermal peptide, lower dose or 1 hour before allergic induction) | Wheal Area, Compound 48/80 (representative experiment) ([2]; intradermal peptide 1 mg/ml) [mm^2] | Wheal Area, Compound 48/80 (representative experiment) ([2]; intradermal peptide 10 mg/ml) [mm^2]
320 (≈ 115 µM) | 71.6 ± 13.8 (n = 5) mm^2 | 66.7 ± 10.1 (n = 5) mm^2 |  |  | CC(C)C[C@H](NC(=O)CNC(=O)[C@H](CS)NC(=O)[C@H](CCC(=O)O)NC(=O)[C@H](CCCCN)NC(=O)[C@H](CC(C)C)NC(=O)[C@H](CC(N)=O)NC(=O)[C@H](CCC(=O)O)NC(=O)[C@H](CCCCN)NC(=O)[C@@H]1CCCN1C(=O)[C@H](C)NC(=O)[C@H](CC(C)C)NC(=O)[C@H](CC(C)C)NC(=O)[C@H](C)NC(=O)[C@H](CC(C)C)NC(=O)[C@H](CC(C)C)NC(=O)[C@@H](NC(=O)[C@H](C)NC(=O)[C@@H]1CCCN1C(=O)[C@H](CC(C)C)NC(=O)[C@H](CC(C)C)NC(=O)[C@H](C)NC(=O)[C@@H](NC(=O)[C@H](C)NC(=O)[C@H](C)NC(=O)CCC(=O)O)C(C)C)C(C)C)C(=O)N[C@@H](Cc1ccc(O)cc1)C(=O)O [WALL012] (Suc-AAVALLPAVLLALLAPKENLKECGLY-OH; C-terminus assumed) | 97.5 | +++ (+++ Potent inhibitor (≧80% inhibition)) | effectively block the allergic response in vivo | 104.8 ± 12.6 (n = 5) mm^2 | 75.1 ± 8.5 (n = 5)** mm^2 | significant inhibition | − | did not result in histamine secretion | minor inhibition of the basal level of histamine secretion |  |  | 
245 (≈ 89.5 µM) | 74.7 ± 12.0 (n = 4) mm^2 | 77.3 ± 13.5 (n = 4) mm^2 |  |  | CC(C)C[C@H](NC(=O)CNC(=O)[C@H](CS)NC(=O)[C@H](CCC(=O)O)NC(=O)[C@H](CCCCN)NC(=O)[C@H](CC(C)C)NC(=O)[C@H](CC(N)=O)NC(=O)[C@H](C)NC(=O)[C@H](CCCCN)NC(=O)[C@@H]1CCCN1C(=O)[C@H](C)NC(=O)[C@H](CC(C)C)NC(=O)[C@H](CC(C)C)NC(=O)[C@H](C)NC(=O)[C@H](CC(C)C)NC(=O)[C@H](CC(C)C)NC(=O)[C@@H](NC(=O)[C@H](C)NC(=O)[C@@H]1CCCN1C(=O)[C@H](CC(C)C)NC(=O)[C@H](CC(C)C)NC(=O)[C@H](C)NC(=O)[C@@H](NC(=O)[C@H](C)NC(=O)[C@H](C)NC(=O)CCC(=O)O)C(C)C)C(C)C)C(=O)N[C@@H](Cc1ccc(O)cc1)C(=O)O [WALL013] (Suc-AAVALLPAVLLALLAPKANLKECGLY-OH; C-terminus assumed) | 100 | +++ (+++ Potent inhibitor (≧80% inhibition)) | effectively block the allergic response in vivo | 89.7 ± 13.7 (n = 4)** mm^2 | 96.4 ± 28.4 (n = 4)* mm^2 | significantly reduced | − | did not result in histamine secretion | minor inhibition of the basal level of histamine secretion |  |  | 
230 (≈ 82.8 µM) | 87.2 ± 1.9 (n = 2) mm^2 | 100.1 ± 38.9 (n = 2) mm^2 |  |  | CC(C)C[C@H](NC(=O)CNC(=O)[C@H](CS)NC(=O)[C@H](CCC(=O)O)NC(=O)[C@H](CCCCN)NC(=O)[C@H](CC(C)C)NC(=O)[C@H](CC(N)=O)NC(=O)[C@H](CC(N)=O)NC(=O)[C@H](CCCCN)NC(=O)[C@@H]1CCCN1C(=O)[C@H](C)NC(=O)[C@H](CC(C)C)NC(=O)[C@H](CC(C)C)NC(=O)[C@H](C)NC(=O)[C@H](CC(C)C)NC(=O)[C@H](CC(C)C)NC(=O)[C@@H](NC(=O)[C@H](C)NC(=O)[C@@H]1CCCN1C(=O)[C@H](CC(C)C)NC(=O)[C@H](CC(C)C)NC(=O)[C@H](C)NC(=O)[C@@H](NC(=O)[C@H](C)NC(=O)[C@H](C)NC(=O)CCC(=O)O)C(C)C)C(C)C)C(=O)N[C@@H](Cc1ccc(N)cc1)C(=O)O [WALL014] (Suc-AAVALLPAVLLALLAPKNNLKECGL[Phe(4-NH2)]-OH; C-terminus assumed) | 83 | +++ (+++ Potent inhibitor (≧80% inhibition)) | effectively block the allergic response in vivo | 108.1 ± 15.0 (n = 2) mm^2 | 91.5 ± 34.9 (n = 2) mm^2 | significantly reduced | − | did not result in histamine secretion |  | no significant inhibition |  | 
300 (≈ 107 µM) |  |  | 110.4 | 89.7 | CC(C)C[C@H](NC(=O)CNC(=O)[C@H](CS)NC(=O)[C@H](CCC(=O)O)NC(=O)[C@H](CCCCN)NC(=O)[C@H](CC(C)C)NC(=O)[C@H](CC(N)=O)NC(=O)[C@H](CCC(N)=O)NC(=O)[C@H](CCCCN)NC(=O)[C@@H]1CCCN1C(=O)[C@H](C)NC(=O)[C@H](CC(C)C)NC(=O)[C@H](CC(C)C)NC(=O)[C@H](C)NC(=O)[C@H](CC(C)C)NC(=O)[C@H](CC(C)C)NC(=O)[C@@H](NC(=O)[C@H](C)NC(=O)[C@@H]1CCCN1C(=O)[C@H](CC(C)C)NC(=O)[C@H](CC(C)C)NC(=O)[C@H](C)NC(=O)[C@@H](NC(=O)[C@H](C)NC(=O)[C@H](C)NC(=O)CCC(=O)O)C(C)C)C(C)C)C(=O)N[C@@H](Cc1ccc(O)cc1)C(=O)O [WALL015] (Suc-AAVALLPAVLLALLAPKQNLKECGLY-OH; C-terminus assumed) | 75 | ++ (++ Moderate inhibitor (50%-70% inhibition)) | effectively block the allergic response in vivo |  |  | reduced the allergic reaction | − | did not result in histamine secretion | minor inhibition of the basal level of histamine secretion |  | 100.1 | 75.3

— patent publication US20070009544A1, “Anti-allergic complex molecules” (priority 1999, published 2007)
